Literature values as cited in PubChem BioAssay AID1259409 (Chemical Carcinogenesis Research Information System (CCRIS), 2018).

Tested on: rodent chemically induced tumor inhibition, incidence and multiplicity
Assay: CCRIS tumor inhibitor studies
Details: Route [Inhibitor]: ORAL

SMILES: CC(=O)Oc1ccccc1C(=O)O
- tumour outcome (control, treated, inhibition, significance) (Carcinogen: N-BUTYL-N-(4-HYDROXYBUTYL)NITROSAMINE, 3817-11-6, Dose [Inhibitor]: 0, 400 MG/KG DIET FOR 24 WK BEGINNING 1 WK PRIOR TO CARCINOGEN TREATMENT (STUDY DURATION: 24 WK), Species: MOUSE, Strain/Sex: BDF/MALE, Target Tissue: Type of Lesion: URINARY BLADDER: TRANSITIONAL CELL CARCINOMA, Dose [Carcinogen]: 7.5 MG 1/WK FOR 8 WK, Promoter: NONE USED): 22/75 (29%), 21/74 (28%), 3%, not significant
- tumour outcome (control, treated, inhibition, significance) (Carcinogen: N-BUTYL-N-(4-HYDROXYBUTYL)NITROSAMINE, 3817-11-6, Dose [Inhibitor]: 0, 800 MG/KG DIET FOR 24 WK BEGINNING 1 WK PRIOR TO CARCINOGEN TREATMENT (STUDY DURATION: 24 WK), Species: MOUSE, Strain/Sex: BDF/MALE, Target Tissue: Type of Lesion: URINARY BLADDER: TRANSITIONAL CELL CARCINOMA, Dose [Carcinogen]: 7.5 MG 1/WK FOR 8 WK, Promoter: NONE USED): 22/75 (29%), 22/73 (30%), -3%, not significant
- tumour outcome (control, treated, inhibition, significance) (Carcinogen: N-METHYL-N'-NITRO-N-NITROSOGUANIDINE, 70-25-7, Dose [Inhibitor]: FOLLOWING 8 WK CARCINOGEN/NACL REGIMEN, RATS FED DIETS SUPPLEMENTED WITH 1% ASPIRIN FOR 32 WK (STUDY DURATION: 40 WK), Species: RAT, Strain/Sex: WISTAR/MALE, Target Tissue: Type of Lesion: DUODENUM: ADENOCARCINOMA, Dose [Carcinogen]: 100 MG/L IN DRINKING WATER FOR 8 WK, AND SIMULTANEOUSLY FED DIET SUPPLEMENTED WITH 10% NACL, Promoter: SODIUM CHLORIDE, 7647-14-5): 3/39 (8%), 1/20 (5%), 38%, not significant
- tumour outcome (control, treated, inhibition, significance) (Carcinogen: N-METHYL-N'-NITRO-N-NITROSOGUANIDINE, 70-25-7, Dose [Inhibitor]: FOLLOWING 8 WK CARCINOGEN/NACL REGIMEN, RATS FED DIETS SUPPLEMENTED WITH 1% ASPIRIN FOR 32 WK (STUDY DURATION: 40 WK), Species: RAT, Strain/Sex: WISTAR/MALE, Target Tissue: Type of Lesion: GLANDULAR STOMACH: ADENOCARCINOMA, Dose [Carcinogen]: 100 MG/L IN DRINKING WATER FOR 8 WK, AND SIMULTANEOUSLY FED DIET SUPPLEMENTED WITH 10% NACL, Promoter: SODIUM CHLORIDE, 7647-14-5): 3/39 (8%), 0/20 (0%), 100% not significant
- tumour outcome (control, treated, inhibition, significance) (Carcinogen: N-METHYL-N'-NITRO-N-NITROSOGUANIDINE, 70-25-7, Dose [Inhibitor]: FOLLOWING 8 WK CARCINOGEN/NACL REGIMEN, RATS FED DIETS SUPPLEMENTED WITH 1% ASPIRIN FOR 32 WK (STUDY DURATION: 40 WK), Species: RAT, Strain/Sex: WISTAR/MALE, Target Tissue: Type of Lesion: GLANDULAR STOMACH: PRENEOPLASTIC HYPERPLASIA, Dose [Carcinogen]: 100 MG/L IN DRINKING WATER FOR 8 WK, AND SIMULTANEOUSLY FED DIET SUPPLEMENTED WITH 10% NACL, Promoter: SODIUM CHLORIDE, 7647-14-5): 5/39 (13%), 2/20 (10%), 23%, not significant
- tumour outcome (control, treated, inhibition, significance) (Carcinogen: N-NITROSOBIS(2-OXOPROPYL)AMINE, 60599-38-4, Dose [Inhibitor]: 0, 1% IN DIET FOR 27 WK BEGINNING POST LAST CARCINOGEN DOSE (STUDY DURATION: 32 WK), Species: HAMSTER, Strain/Sex: SYRIAN/FEMALE, Target Tissue: Type of Lesion: PANCREAS: ADENOCARCINOMA, Dose [Carcinogen]: 10 MG/KG 1/WK FOR 5 WK, Promoter: NONE USED): 20/28 (71%), 10/19 (53%), 25%, not calculated
- tumour outcome (control, treated, inhibition, significance) (Carcinogen: N-NITROSODIETHYLAMINE, 55-18-5, 2-ACETYLAMINOFLUORENE, 53-93-6, CARBON TETRACHLORIDE, 56-23-5, Carcinogen: N-NITROSODIETHYLAMINE, 55-18-5, 2-ACETYLAMINOFLUORENE, 53-93-6, CARBON TETRACHLORIDE, 56-23-5, Dose [Inhibitor]: 0, 0.75% IN DIET FOR 29 WK ADMINISTERED TO RATS BEARING PERSISTENT NODULES FOLLOWING CARCINOGEN TREATMENT (STUDY DURATIO, Species: RAT, Strain/Sex: F344/MALE, Target Tissue: Type of Lesion: LIVER: HEPATOCELLULAR CARCINOMA, Dose [Carcinogen]: 200 MG/KG BW DEN ONCE, 0.002% 2-AAF IN DIET FOR 2 WK, 1 MG/KG BW CCL4 MIDWAY IN 2-AAF TREATMENT, Dose [Carcinogen]: 200 MG/KG BW DEN ONCE, 0.002% 2-AAF IN DIET FOR 2 WK, 1 MG/KG BW CCL4 MIDWAY IN 2-AAF TREATMENT, Promoter: NONE USED): 7/8 (88%), 5/13 (38%), 57%, not significant
- tumour outcome (control, treated, inhibition, significance) (Carcinogen: N-NITROSODIETHYLAMINE, 55-18-5, 2-ACETYLAMINOFLUORENE, 53-93-6, CARBON TETRACHLORIDE, 56-23-5, Carcinogen: N-NITROSODIETHYLAMINE, 55-18-5, 2-ACETYLAMINOFLUORENE, 53-93-6, CARBON TETRACHLORIDE, 56-23-5, Dose [Inhibitor]: 0, 0.75% IN DIET FOR 29 WK ADMINISTERED TO RATS BEARING PERSISTENT NODULES FOLLOWING CARCINOGEN TREATMENT (STUDY DURATIO, Species: RAT, Strain/Sex: F344/MALE, Target Tissue: Type of Lesion: LIVER: HEPATOCELLULAR CARCINOMA, Dose [Carcinogen]: 200 MG/KG BW DEN ONCE, 0.002% 2-AAF IN DIET FOR 2 WK, 1 ML/KG BW CCL4 MIDWAY IN 2-AAF TREATMENT, Dose [Carcinogen]: 200 MG/KG BW DEN ONCE, 0.002% 2-AAF IN DIET FOR 2 WK, 1 ML/KG BW CCL4 MIDWAY IN 2-AAF TREATMENT, Promoter: PHENOBARBITAL, 50-06-6): 12/12 (100%), 12/14 (86%), 14%, not significant
- tumour outcome (control, treated, inhibition, significance) (Carcinogen: N-[4-(5-NITRO-2-FURYL)-2-THIAZOLYL]FORMAMIDE, 24554-26-5, Dose [Inhibitor]: 0.5% IN DIET FOR 2 D PRIOR TO AND FOR 7 D AFTER CARCINOGEN ADMINISTRATION (13 WK TOTAL) FOLLOWED BY 56 WK ON CONTROL DIE, Species: RAT, Strain/Sex: FISCHER/MALE, Target Tissue: Type of Lesion: URINARY BLADDER: CARCINOMA, Dose [Carcinogen]: 0.2% IN DIET SIMULTANEOUSLY WITH INHIBITOR FOR 12 WK, Promoter: NONE USED): 18/21 (86%), 10/27 (37%), 57%, p<0.001
